“Also recorded” adds a separate entry of the source. Positions of bridges follow the written chain, without caps; N, C: chain ends. Non-standard residues stand in square brackets, D forms with d. Residues, ends and D or L forms follow the SMILES beside them. hArg = N=C(N)NCCCC[C@H](N)C(=O)O; Mpa = O=C(O)CCS
Key:
[1] = target: T1, αIIbβ3 (Homo sapiens, UniProt P05106+P08514); assay: Binding of conformation-sensitive mAbs AP5 / LIBS-1 to human platelets; format: cell-based
T1 construct: expressed in transfected cells; host or cells: K562

[2] = system: human platelets; assay: Thrombin-induced clot retraction in human platelet-rich plasma; format: cell-based
Protocol: 750 μL of Tyrode's buffer supplemented with inhibitor was mixed in a glass culture tube with 200 μL of PRP and 5 μL red blood cells. Clotting was initiated by addition of 50 μL thrombin at 10 units/mL in saline and a sealed Pasteur pipette secured in the tube center. Digital photographs of the experiment were taken at 15-minute intervals over 2 hours. Images were analyzed with ImageJ software to determine the area occupied by the clot and plasma. Plots of the relative areas and linear regressions were performed with SigmaPlot (Systat Software, San Jose, Calif.).
No ligands were added to the control tube. Photographs were taken immediately after thrombin addition (FIG. 5A) and at the end of the reaction (FIG. 5B). Clot retraction around the central glass rod placed in each glass test tube before thrombin addition is shown. 5 μL of red blood cells were added per 1 mL reaction to enhance the color contrast for photography.
Clot retraction normally helps secure hemostasis in vivo as evidenced by increased bleeding in mice with impaired clot retraction (see e.g., Leon et al, Blood 110, 3183-3191, doi:10.1182/blood-2007-03-080184 (2007)), or in recipients of any of the three anti-αIIbβ3 drugs (see e.g., Tutwiler et al, Biophys. J. 112, 714-723 (2017); Osdoit et al, J. Biol. Chem. 276, 6703-6710 (2001); Haling et al, Blood 117, 1719-1722 (2011)). The effects of Hr10 and eptifibatide on thrombin-induced clot retraction in fresh human platelet-rich plasma (PRP) (see e.g., Tucker et al, Methods Mol. Biol. 788, 101-107 (2012)) were compared. The kinetics of clot retraction were determined from quantification of serial images of the reaction acquired every 15 minutes for the 2-hour duration of the assay. […] Thrombolysis, 15, 71-80 (2003).

[3] = system: human platelets; assay: Surface expression of CD62P and CD63 on human platelets (flow cytometry); format: cell-based; conditions: 1.5 μM; ADP 20 μM; FIG. 11F
Protocol: αVβ3-K562 cells or transiently transfected HEK293T (0.5×10^6 in 100 μL WB) were incubated in the absence or presence of unlabeled Hr10 or eptifibatide, each at 1.5 μM, for 20 min at RT. Alexa647-labeled AP5 Fab or unlabeled anti-LIBS-1 (each to 10 μg/mL) were added, and cells incubated for an additional 30 min before washing. Alexa647-labeled AP3 was used for normalization of integrin expression. APC-labeled goat anti-mouse Fc-specific antibody was added to anti-LIBS-1-bound cells for an additional 30 min at 4° C., cells washed and processed for flow cytometry. Binding of anti-CD62 and anti-CD63 mAbs to platelets was performed by incubating (20 min, RT) 100 μL of ligand-pretreated 3.2% sodium citrate whole blood with either Alexa488-labeled mAb (at 10 μg/mL) in the presence of 10 μg/mL Alexa647-labeled anti-CD42b. Cells were fixed in 2% paraformaldehyde and CD62 and CD63 expression was analyzed by flow cytometry in the CD42b positive population.

[4] = system: human platelets; assay: Cremaster laser injury thrombosis in vWF RH/RH NSG mice infused with human platelets; format: in vivo; conditions: eptifibatide 5 μg/mouse, Hr10 60 μg/mouse (equimolar), infused 5 min before injury; FIG. 13A
Protocol: Human blood was collected in 0.129 M sodium citrate (10:1 vol/vol). Blood was obtained from healthy donors after informed consent. Platelet-rich plasma (PRP) was separated after centrifugation (200 g, 10 minutes) at room temperature (RT). The platelets were then isolated from PRP, and prostaglandin E1 (Sigma-Aldrich) added to a final concentration of 1 μM. Platelets were then pelleted by centrifugation (800 g, 10 minutes) at RT. The pellet was washed in calcium-free Tyrode's buffer (134 mM NaCl, 3 mM KCl, 0.3 mM NaH2PO4, 2 mM MgCl2, 5 mM HEPES, 5 mM glucose, 0.1% NaHCO3, and 1 mM EGTA, pH 6.5), and re-suspended in CATCH buffer (PBS and 1.5% bovine serum albumin, 1 mM adenosine, 2 mM theophylline, 0.38% sodium citrate, all from Sigma-Aldrich). Platelet counts were determined using a HemaVet counter (Drew Scientific). Intravital microscopy was performed as previously described (see e.g., Celi et al, J. Thromb. Haemost. 1, 60-68 (2003); and Neyman et al, Blood, 112, 1101-1108 (2008)). vWF^RH RHNSG male mice were studied after being anesthetized using sodium pentobarbital (80 mg/kg) injected intraperitoneally. Mice were maintained under anesthesia with the same anesthetic delivered via a catheterized jugular vein at 5 mg/mL throughout the experiment. […]

[5] = Tail bleeding in vWF RH/RH NSG mice infused with human platelets; conditions: mouse, in vivo
Protocol: Pentobarbital-anesthetized vWF^RH RHNSG mice were infused retroorbitally with 8×10^8 washed human platelets in a final volume of 200 μL (so that ˜40% of the circulating platelets were human). After 5 minutes PBS, 3 μM eptifibatide or Hr10 were administered IV. After another 5 minutes, mouse tail injury was produced by amputating an 8-mm terminal tail segment using a razor blade, which was then placed in a collection tube containing sterile water at 37° C. for 10 minutes. The hemoglobin level in the water was measured by a spectrophotometer, as described (see e.g., Greene et al, J. Thromb. Haemost. 8, 2820-2822 (2010)) with the following modifications. Briefly, the hemolyzed whole blood/water mixture was centrifuged at 21,000×g for 5 minutes. Aliquots (20 μL) of clarified, stroma-free supernatant were diluted 10-fold in a Corning 96-well micro-plate and light absorbance measured at 575 nm (Spectramax-190 plate reader, Molecular Devices, San Jose, Calif.). Blood loss during the 10-minute window was measured based on a previously obtained standard curve.

T1 sequence (P08514 32-887 limits assumed): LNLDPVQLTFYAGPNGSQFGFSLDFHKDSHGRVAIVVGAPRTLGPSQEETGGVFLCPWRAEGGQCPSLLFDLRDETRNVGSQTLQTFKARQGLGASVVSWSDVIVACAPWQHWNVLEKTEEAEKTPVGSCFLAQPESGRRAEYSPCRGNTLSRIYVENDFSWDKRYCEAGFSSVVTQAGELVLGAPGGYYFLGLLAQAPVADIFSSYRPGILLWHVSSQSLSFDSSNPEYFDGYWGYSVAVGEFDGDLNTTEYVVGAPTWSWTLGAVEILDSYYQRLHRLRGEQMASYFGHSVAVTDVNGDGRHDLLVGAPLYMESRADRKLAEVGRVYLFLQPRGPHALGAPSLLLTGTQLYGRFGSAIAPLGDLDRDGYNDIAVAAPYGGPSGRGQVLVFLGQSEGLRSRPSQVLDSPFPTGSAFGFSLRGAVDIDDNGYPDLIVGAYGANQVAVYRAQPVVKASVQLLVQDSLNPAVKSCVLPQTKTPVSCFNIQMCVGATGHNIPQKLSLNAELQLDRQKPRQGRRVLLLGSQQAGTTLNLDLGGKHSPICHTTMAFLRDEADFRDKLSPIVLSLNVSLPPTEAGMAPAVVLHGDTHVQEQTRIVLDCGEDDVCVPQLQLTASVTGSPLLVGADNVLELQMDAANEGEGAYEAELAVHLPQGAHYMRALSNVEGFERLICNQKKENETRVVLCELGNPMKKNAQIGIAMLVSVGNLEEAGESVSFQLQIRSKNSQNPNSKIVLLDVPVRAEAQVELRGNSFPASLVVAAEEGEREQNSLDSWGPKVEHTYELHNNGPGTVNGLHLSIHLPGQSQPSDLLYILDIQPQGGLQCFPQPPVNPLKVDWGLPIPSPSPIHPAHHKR
T1 sequence (P08514 891-1039 partner limits assumed): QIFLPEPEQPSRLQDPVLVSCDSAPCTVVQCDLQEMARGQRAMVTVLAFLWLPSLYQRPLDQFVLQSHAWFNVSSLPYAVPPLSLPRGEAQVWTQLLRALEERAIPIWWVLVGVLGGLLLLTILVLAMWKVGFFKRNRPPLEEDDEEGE
T1 sequence (P05106 27-788): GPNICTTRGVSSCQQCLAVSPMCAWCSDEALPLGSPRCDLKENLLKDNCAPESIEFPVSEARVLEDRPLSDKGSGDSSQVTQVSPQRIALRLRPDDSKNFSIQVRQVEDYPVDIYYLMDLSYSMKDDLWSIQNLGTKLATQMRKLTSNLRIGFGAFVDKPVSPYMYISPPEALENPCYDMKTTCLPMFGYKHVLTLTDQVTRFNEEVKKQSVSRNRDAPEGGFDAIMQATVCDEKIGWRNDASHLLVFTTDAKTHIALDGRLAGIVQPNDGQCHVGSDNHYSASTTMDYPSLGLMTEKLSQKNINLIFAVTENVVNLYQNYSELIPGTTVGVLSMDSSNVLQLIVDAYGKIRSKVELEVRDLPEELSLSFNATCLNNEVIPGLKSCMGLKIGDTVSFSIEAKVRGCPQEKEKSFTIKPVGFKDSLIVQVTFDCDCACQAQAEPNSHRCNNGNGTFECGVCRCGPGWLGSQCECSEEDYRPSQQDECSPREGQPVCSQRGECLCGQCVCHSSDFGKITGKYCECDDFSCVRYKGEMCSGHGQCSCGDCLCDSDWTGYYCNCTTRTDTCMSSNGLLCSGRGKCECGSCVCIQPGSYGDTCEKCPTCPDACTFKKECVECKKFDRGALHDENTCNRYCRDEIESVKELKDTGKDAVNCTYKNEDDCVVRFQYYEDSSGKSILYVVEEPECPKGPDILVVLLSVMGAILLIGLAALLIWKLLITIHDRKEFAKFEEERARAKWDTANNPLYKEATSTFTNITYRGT

SMILES	Induction of AP5 epitope expression on human platelets ([1]; tirofiban 150 nM, M-tirofiban 1.5 μM, ADP 5 μM, FIG. 6D)	Kinetics of thrombin-induced clot retraction ([2]; FIG. 6E, three experiments, vs buffer control)	Clot retraction induced by α-thrombin (photographs) ([2]; tirofiban 1.5 μM, m-tirofiban 15 μM, α-thrombin 0.5 unit/mL, FIG. 5)	Conformational changes in αIIbβ3 reported by binding of mAbs AP5 and LIBS-1 ([1]; 1.5 μM, absence or presence of 5 μM ADP, FIG. 8D)	Kinetics of thrombin-induced clot retraction vs. buffer ([2]; fresh human PRP, 2 hours, FIGS. 12A-12B, three experiments)	ADP-induced secretion from lysosomes (CD63 expression) [3]	ADP-induced secretion from platelet α-granules (CD62P expression) [3]	Nascent occlusive thrombus formation / human platelet accumulation at laser-induced arteriolar injury [4]	Bleeding volume [5]	Bleeding in humanized mice ([5]; iv)
CCCCS(=O)(=O)N[C@@H](Cc1ccc(OCCCCC2CCNCC2)cc1)C(=O)O [tirofiban]	induced expression of the AP5 epitope	effectively blocked thrombin-induced clot retraction	completely blocked clot retraction							
N=C(N)NCCCC[C@@H]1NC(=O)CCSSC[C@@H](C(N)=O)NC(=O)[C@@H]2CCCN2C(=O)[C@H](Cc2c[nH]c3ccccc23)NC(=O)[C@H](CC(=O)O)NC(=O)CNC1=O [eptifibatide] ([Mpa][hArg]GDWPC-NH2; disulfide 1-7)				induced conformational changes in αIIbβ3	significantly blocked clot retraction; also recorded: clot retraction was significantly reduced	did not significantly alter; also recorded: No differences	did not significantly alter; also recorded: No differences	completely preventing nascent occlusive thrombus formation	~10 % of blood volume of a normal mouse	caused excessive bleeding

— patent US11685717B2, “Polypeptide integrin antagonists” (The General Hospital Corporation, priority 2018, dated 2023)
